The source made the active and inactive calls. No cut-off for these calls is given here.
How the values were obtained:
Assay type in all cases: functional, organism-based
[1] = tested on: Aspergillus flavus; test: Antifungal activity against Aspergillus flavus NRRL 6541 at 100 ug/disk by agar disk diffusion assay
[2] = tested on: Bacillus subtilis; test: Antibacterial activity against Bacillus subtilis ATCC 6051 at 100 ug/disk by agar disk diffusion assay
[3] = tested on: Staphylococcus aureus; test: Antibacterial activity against Staphylococcus aureus ATCC 29213 at 100 ug/disk by agar disk diffusion assay
[4] = tested on: Candida albicans; test: Antifungal activity against Candida albicans ATCC 14053 at 100 ug/disk by agar disk diffusion assay
[5] = tested on: Spodoptera frugiperda; test: Insecticidal activity against Spodoptera frugiperda at 100 ug/disk

SMILES | Activity [1] | Activity [2] | Activity [3] | Activity [4] | Activity [5]
C[C@@]1(CO)C[C@]2(C)CC=C[C@]23[C@H](C(=O)O)CC[C@@H]13 | inactive | inactive | inactive | inactive | inactive
CC1(C)C[C@]2(C)CC(=O)O[C@H]3OC(=O)[C@@H]4CC[C@@H]1[C@]342 | – | – | – | – | Active
C[C@@]1(CO)C[C@]2(C)CC(=O)O[C@H]3OC(=O)[C@@H]4CC[C@@H]1[C@]342 | inactive | inactive | inactive | inactive | inactive
